Columns and labels:
p-STAT3 and β-catenin = assay: Immunofluorescence of cancer stem cell markers in xenograft tumors; format: in vivo, mice; details: FIG. 5; tumors collected 24 hours after first dose; e.g. 50 mg/kg BID oral gavage
Method: Detection of the effects of 2-acetylnaphtho[2,3-b]furan-4,9-dione with or without paclitaxel on cancer stem cells for cancer stem cell markers in cancer xenograft animal models.
Human cancer cells were implanted subcutaneously into the right abdomen of 5 to 7 weeks athymic nude mice. When the tumor size reaches 200 mm^3, administer 2-acetylnaphtho[2,3-b]furan-4,9-dione (for example, 50 mg/kg (BID) by oral gavage (n=3/group)), paclitaxel, or 2-acetylnaphtho[2,3-b]furan-4,9-dione combined with paclitaxel to treat animals. Tumors were collected 24 hours after the first dose.
The harvested tissues were fixed in 3.7% neutral buffered formaldehyde at 4° C. overnight. Paraffin embedding were performed. Cut those into approximately 5 microns and fix them on positively charged glass slides. After baking and deparaffinization, the slides with tumor or control tissue were incubated in 10 mM sodium citrate (pH 6.0) for 10 minutes. After antigen retrieval, use primary antibody P-STAT3 (Rabbit, Cell Signaling, 1:100), β-catenin (Mouse, Santa Cruz, 1:400) to label slides overnight at 4° C., and then use Alexa Fluor Fluorescent dye-conjugated secondary antibody (1:500, Invitrogen). After mounting, the glass slides containing DAPI (Invitrogen) with Prolong mounting medium were detected under the 20× objective lens of a Zeiss fluorescence microscope, and analyzed with Zen software.

[1] = test system: human pancreatic adenocarcinoma (Panc-1); assay: Xenograft tumor mouse model, tumor size during treatment; format: in vivo, mice; details: FIG. 4; 2-acetylnaphtho[2,3-b]furan-4,9-dione 100 mg/kg PO bid; gemcitabine 80 mg/kg IV q3d; mean of five tumors
Method: The effects of 2-acetylnaphtho[2,3-b]furan-4,9-dione, the compound of formula (I), gemcitabine, and a combination of 2-acetylnaphtho[2,3-b]furan-4,9-dione and gemcitabine were studied. Specifically, immunosuppressed mice with established human pancreatic adenocarcinoma (Panc-1) were treated with vehicle control, 2-acetylnaphtho[2,3-b]furan-4,9-dione (100 mg/kg, PO, bid), gemcitabine (Gemzar, 80 mg/kg, IV, q3d), or the combination of 2-acetylnaphtho[2,3-b]furan-4,9-dione and gemcitabine. Tumor size was evaluated periodically during treatment. Each point represents the mean±SEM of five tumors.

[2] = test system: advanced pancreatic cancer; assay: Phase II/III open label clinical study in patients who failed previous treatments (RECIST 1.1); format: in vivo, human; details: all patients receiving treatment
Text: In a phase II/III extended open label international multicenter experiment, search the effect of the compound of formula (I), 2-acetylnaphtho[2,3-b]furan-4,9-dioen combined with paclitaxel and a low dose of gemcitabine on patients with advanced pancreatic cancer who have failed previous treatments.
In the clinical study, we observed the anti-tumor activity and safety of 2-acetylnaphtho[2,3-b]furan-4,9-dione combined with paclitaxel weekly and a low dose of gemcitabine in patients with advanced pancreatic cancer who failed previous treatment. There are imaging disease progressions in patients who have received at least first-line systemic treatment in the past and failed. Previous treatments include gemcitabine-based single-agent or combination chemotherapy, and/or FOLFIRINOX/mFOLFIRINOX chemotherapy. […]
The remission and progression of the tumor were evaluated according to the RECIST 1.1 standard. […]

STAT3 pathway = details: according to WO2009/036059; read-out: STAT3 pathway activity, cellular IC50; cited from earlier work

Row | Compound | expression (staining) of stem cell markers p-STAT3 and β-catenin (p-STAT3 and β-catenin) | tumor growth (tumor volume) [1] | adverse events related to the compound [2] | IC50 (STAT3 pathway)
1 | CC(=O)O[C@H]1C(=O)[C@@]2(C)[C@H]([C@H](OC(=O)c3ccccc3)[C@]3(O)C[C@H](OC(=O)[C@H](O)[C@@H](NC(=O)c4ccccc4)c4ccccc4)C(C)=C1C3(C)C)[C@]1(OC(C)=O)CO[C@@H]1C[C@@H]2O [paclitaxel, reference compound] | increased staining of stem cell markers |  |  | 
2 | CC(=O)c1cc2c(o1)C(=O)c1ccccc1C2=O [2-acetylnaphtho[2,3-b]furan-4,9-dione] | significantly reduce the expression of stem cell markers p-STAT3 and β-catenin | showed certain effects in inhibiting tumor growth | mainly gastrointestinal adverse events | ~0.25 µM
3 | Nc1ccn([C@@H]2O[C@H](CO)[C@@H](O)C2(F)F)c(=O)n1 [gemcitabine, reference compound] |  | showed certain effects in inhibiting tumor growth |  | 
